Data taken from US12054463B2, “Radiolabeled microtubule imaging compounds and uses thereof” (The Trustees of Columbia University in the City of New York, priority 2017, dated 2024).
One block for each compound: values may come before it.

How the values were obtained:
Adenosine = experiment: Affinity to brain targets (panel); format: binding; settings: Adenosine (A)
α1A-1C = experiment: Affinity to brain targets (panel); format: binding
BZP = experiment: Affinity to brain targets (panel); format: binding; settings: BZP: benzodiazepine
Ca++ channel = experiment: Affinity to brain targets (panel); format: binding
AMPA = experiment: Affinity to brain targets (panel); format: binding
NET = NET (Homo sapiens, UniProt P23975); experiment: Affinity to brain targets (panel); format: binding; settings: NET: norepinephrine transporter
NK = experiment: Affinity to brain targets (panel); format: binding; settings: NK: neurokinin
Sigma1 = Sigma1 (Homo sapiens, UniProt Q99720); experiment: Affinity to brain targets (panel); format: binding
Na+ Channel = experiment: Affinity to brain targets (panel); format: binding
mGluR = experiment: Affinity to brain targets (panel); format: binding; settings: mGluR (mGluRs): metabotropic glutamate receptors
NOP = NOP (Homo sapiens, UniProt P41146); experiment: Affinity to brain targets (panel); format: binding
PBR = PBR (Homo sapiens, UniProt P30536); experiment: Affinity to brain targets (panel); format: binding
Oxytocin = biological target: T1, Oxytocin (Homo sapiens, UniProt P30559); experiment: Affinity to brain targets (panel); format: binding
T1 sequence (P30559 1-389): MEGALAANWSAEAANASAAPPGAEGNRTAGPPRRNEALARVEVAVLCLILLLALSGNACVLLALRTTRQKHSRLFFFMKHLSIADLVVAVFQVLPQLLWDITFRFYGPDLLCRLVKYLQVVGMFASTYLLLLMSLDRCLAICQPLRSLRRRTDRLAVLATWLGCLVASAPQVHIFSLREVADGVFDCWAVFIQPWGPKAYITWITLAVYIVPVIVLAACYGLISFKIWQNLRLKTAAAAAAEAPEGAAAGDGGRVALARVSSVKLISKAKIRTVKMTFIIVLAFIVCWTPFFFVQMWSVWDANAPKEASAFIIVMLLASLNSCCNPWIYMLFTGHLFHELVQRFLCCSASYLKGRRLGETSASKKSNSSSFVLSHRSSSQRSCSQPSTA

Smoothened = Smoothened (Homo sapiens, UniProt Q99835); experiment: Affinity to brain targets (panel); format: binding
KA = experiment: Affinity to brain targets (panel); format: binding; settings: KA (KAR): Kainate
DAT = DAT (Homo sapiens, UniProt Q01959); experiment: Affinity to brain targets (panel); format: binding; settings: DAT: dopamine transporters
DOR = DOR (Homo sapiens, UniProt P41143); experiment: Affinity to brain targets (panel); format: binding; settings: DOR: delta opioid receptors
EP = experiment: Affinity to brain targets (panel); format: binding; settings: EP: prostanoid receptors
GABA = experiment: Affinity to brain targets (panel); format: binding
HERG = HERG (Homo sapiens, UniProt Q12809); experiment: Affinity to brain targets (panel); format: binding; settings: HERG: human ether-a-go-go
KOR = KOR (Homo sapiens, UniProt P41145); experiment: Affinity to brain targets (panel); format: binding; settings: KOR: kappa opioid receptors
M = experiment: Affinity to brain targets (panel); format: binding; settings: M: muscarinic
H3, H4 = experiment: Affinity to brain targets (panel); format: binding; settings: H3, H4: histamine
MDR1 = MDR1 (Homo sapiens, UniProt P08183); experiment: Affinity to brain targets (panel); format: binding; settings: MDR1: multidrug resistance
H1 = H1 (Homo sapiens, UniProt P35367); experiment: Affinity to brain targets (panel); format: binding; settings: H1: histamine
H2 = H2 (Homo sapiens, UniProt P25021); experiment: Affinity to brain targets (panel); format: binding; settings: H2: histamine
MOR = MOR (Homo sapiens, UniProt P35372); experiment: Affinity to brain targets (panel); format: binding; settings: MOR: mu opioid receptor
NMDA = experiment: Affinity to brain targets (panel); format: binding
SERT = SERT (Homo sapiens, UniProt P31645); experiment: Affinity to brain targets (panel); format: binding; settings: SERT: serotonin transporter
Sigma2 = Sigma2 (Homo sapiens, UniProt Q5BJF2); experiment: Affinity to brain targets (panel); format: binding; settings: Sigma2 (Sigma 2)
I = experiment: Affinity to brain targets (panel); format: binding
VMAT = experiment: Affinity to brain targets (panel); format: binding; settings: VMAT (VMAT 1,2): vesicular monoamine transporter
NT = experiment: Affinity to brain targets (panel); format: binding; settings: NT: neurotrophin
PKC = experiment: Affinity to brain targets (panel); format: binding; settings: PKC: Protein kinase C
5-HT1A-1E = experiment: Affinity to brain targets (panel); format: binding
5-HT2A-2C = experiment: Affinity to brain targets (panel); format: binding
5-HT3-7 = experiment: Affinity to brain targets (panel); format: binding
α2A-2C = experiment: Affinity to brain targets (panel); format: binding
β1-3 = experiment: Affinity to brain targets (panel); format: binding
CB1, CB2 = experiment: Affinity to brain targets (panel); format: binding
D1-D5 = experiment: Affinity to brain targets (panel); format: binding
brain MTs = experiment: MicroPET in mice brain; format: in vivo; settings: for BBB penetration and brain distribution: microPET, mice
Method: Blocking with unlabeled MPC-6827 and HD-800 (5 mg/kg/i.v) 20 minute prior to radioligand administration indicates specific binding of radiotracer to brain MTs. […] Time activity curves (TACs) further confirm the washout of [^11C]HD-800 in mice brain and excellent specific binding with unlabeled HD-800 and MPC-6827 as blocking agents (FIG. 9).^23-24
The distribution pattern of [^18F]FEMPC-6827 in the mice brain is similar to that of [^11C]MPC-6827 and [^11C]HD-800.

panel of kinases = settings: cited from earlier work
[1] = references 12-14; cited from earlier work
tumor xenografts = settings: references 12-14; cited from earlier work

Sequence of NET (P23975 whole entry): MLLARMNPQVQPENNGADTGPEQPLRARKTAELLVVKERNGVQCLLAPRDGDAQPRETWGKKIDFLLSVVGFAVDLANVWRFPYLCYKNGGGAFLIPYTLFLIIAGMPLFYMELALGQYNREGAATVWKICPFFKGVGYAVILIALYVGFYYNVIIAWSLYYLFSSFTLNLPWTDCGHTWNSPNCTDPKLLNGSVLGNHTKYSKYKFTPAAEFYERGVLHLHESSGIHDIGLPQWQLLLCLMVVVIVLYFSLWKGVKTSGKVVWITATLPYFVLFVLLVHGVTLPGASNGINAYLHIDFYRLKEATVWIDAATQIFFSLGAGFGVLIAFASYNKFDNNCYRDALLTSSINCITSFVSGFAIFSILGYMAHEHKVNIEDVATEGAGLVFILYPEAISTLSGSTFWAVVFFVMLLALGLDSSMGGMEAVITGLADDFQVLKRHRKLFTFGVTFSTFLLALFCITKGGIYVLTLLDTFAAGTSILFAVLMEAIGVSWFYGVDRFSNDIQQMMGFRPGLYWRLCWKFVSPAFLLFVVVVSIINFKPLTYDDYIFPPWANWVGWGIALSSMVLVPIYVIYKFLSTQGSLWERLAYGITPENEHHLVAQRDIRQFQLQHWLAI
Sequence of Sigma2 (Q5BJF2 whole entry): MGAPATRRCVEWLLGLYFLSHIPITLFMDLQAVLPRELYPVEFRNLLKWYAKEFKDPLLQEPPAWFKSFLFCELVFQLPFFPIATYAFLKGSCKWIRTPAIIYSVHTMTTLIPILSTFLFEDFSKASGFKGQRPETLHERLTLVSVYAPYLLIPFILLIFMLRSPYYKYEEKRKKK
Sequence of H1 (P35367 whole entry): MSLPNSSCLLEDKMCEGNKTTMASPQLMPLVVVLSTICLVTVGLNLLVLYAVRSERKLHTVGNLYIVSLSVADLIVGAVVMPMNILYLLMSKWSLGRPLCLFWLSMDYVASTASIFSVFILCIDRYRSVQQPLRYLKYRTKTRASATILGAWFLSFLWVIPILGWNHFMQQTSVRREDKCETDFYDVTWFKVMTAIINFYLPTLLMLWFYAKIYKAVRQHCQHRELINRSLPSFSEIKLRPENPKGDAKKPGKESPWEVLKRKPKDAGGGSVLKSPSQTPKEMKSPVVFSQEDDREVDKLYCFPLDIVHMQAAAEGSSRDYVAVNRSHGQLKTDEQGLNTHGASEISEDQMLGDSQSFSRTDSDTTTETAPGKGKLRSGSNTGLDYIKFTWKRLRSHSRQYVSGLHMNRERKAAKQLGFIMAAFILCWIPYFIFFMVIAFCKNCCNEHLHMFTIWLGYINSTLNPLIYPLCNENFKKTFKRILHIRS
Sequence of SERT (P31645 whole entry, species assumed): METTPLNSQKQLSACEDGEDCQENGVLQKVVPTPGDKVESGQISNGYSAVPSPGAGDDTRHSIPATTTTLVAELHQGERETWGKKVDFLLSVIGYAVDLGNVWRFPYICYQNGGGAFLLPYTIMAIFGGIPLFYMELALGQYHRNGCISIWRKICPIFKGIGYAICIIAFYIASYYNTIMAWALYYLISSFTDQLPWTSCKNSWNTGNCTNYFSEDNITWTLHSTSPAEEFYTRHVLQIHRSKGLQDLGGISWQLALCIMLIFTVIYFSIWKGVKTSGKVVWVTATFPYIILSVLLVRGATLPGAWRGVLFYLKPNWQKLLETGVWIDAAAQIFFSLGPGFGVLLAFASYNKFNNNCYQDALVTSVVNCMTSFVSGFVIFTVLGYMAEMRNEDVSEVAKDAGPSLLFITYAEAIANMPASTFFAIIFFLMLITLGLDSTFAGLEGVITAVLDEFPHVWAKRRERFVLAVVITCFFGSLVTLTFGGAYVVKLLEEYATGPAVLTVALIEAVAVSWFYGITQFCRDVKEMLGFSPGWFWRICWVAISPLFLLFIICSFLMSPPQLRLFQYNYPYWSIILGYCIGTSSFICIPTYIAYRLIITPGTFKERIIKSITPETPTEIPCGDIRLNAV
Sequence of KOR (P41145 whole entry): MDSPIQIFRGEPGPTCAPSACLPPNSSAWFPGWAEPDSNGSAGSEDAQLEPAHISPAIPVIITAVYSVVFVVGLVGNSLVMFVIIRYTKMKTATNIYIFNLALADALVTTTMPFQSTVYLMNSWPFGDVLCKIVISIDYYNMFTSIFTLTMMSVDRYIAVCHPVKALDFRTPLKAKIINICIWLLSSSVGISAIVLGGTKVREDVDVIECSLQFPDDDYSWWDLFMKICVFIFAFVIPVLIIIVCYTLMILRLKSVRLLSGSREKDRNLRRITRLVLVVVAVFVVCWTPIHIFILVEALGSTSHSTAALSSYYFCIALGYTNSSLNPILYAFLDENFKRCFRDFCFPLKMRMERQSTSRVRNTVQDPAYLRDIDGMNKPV
Sequence of MOR (P35372 whole entry): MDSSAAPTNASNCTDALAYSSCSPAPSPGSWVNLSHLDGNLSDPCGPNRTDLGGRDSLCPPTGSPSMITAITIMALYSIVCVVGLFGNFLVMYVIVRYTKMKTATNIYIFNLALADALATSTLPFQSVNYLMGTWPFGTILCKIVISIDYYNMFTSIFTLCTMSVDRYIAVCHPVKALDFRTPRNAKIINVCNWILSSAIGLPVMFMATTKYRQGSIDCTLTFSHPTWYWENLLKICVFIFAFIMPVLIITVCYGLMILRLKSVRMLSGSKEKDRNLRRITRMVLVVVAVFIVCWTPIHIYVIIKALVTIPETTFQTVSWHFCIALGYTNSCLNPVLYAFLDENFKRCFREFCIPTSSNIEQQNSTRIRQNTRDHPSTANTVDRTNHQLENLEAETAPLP
Sequence of HERG (Q12809 whole entry): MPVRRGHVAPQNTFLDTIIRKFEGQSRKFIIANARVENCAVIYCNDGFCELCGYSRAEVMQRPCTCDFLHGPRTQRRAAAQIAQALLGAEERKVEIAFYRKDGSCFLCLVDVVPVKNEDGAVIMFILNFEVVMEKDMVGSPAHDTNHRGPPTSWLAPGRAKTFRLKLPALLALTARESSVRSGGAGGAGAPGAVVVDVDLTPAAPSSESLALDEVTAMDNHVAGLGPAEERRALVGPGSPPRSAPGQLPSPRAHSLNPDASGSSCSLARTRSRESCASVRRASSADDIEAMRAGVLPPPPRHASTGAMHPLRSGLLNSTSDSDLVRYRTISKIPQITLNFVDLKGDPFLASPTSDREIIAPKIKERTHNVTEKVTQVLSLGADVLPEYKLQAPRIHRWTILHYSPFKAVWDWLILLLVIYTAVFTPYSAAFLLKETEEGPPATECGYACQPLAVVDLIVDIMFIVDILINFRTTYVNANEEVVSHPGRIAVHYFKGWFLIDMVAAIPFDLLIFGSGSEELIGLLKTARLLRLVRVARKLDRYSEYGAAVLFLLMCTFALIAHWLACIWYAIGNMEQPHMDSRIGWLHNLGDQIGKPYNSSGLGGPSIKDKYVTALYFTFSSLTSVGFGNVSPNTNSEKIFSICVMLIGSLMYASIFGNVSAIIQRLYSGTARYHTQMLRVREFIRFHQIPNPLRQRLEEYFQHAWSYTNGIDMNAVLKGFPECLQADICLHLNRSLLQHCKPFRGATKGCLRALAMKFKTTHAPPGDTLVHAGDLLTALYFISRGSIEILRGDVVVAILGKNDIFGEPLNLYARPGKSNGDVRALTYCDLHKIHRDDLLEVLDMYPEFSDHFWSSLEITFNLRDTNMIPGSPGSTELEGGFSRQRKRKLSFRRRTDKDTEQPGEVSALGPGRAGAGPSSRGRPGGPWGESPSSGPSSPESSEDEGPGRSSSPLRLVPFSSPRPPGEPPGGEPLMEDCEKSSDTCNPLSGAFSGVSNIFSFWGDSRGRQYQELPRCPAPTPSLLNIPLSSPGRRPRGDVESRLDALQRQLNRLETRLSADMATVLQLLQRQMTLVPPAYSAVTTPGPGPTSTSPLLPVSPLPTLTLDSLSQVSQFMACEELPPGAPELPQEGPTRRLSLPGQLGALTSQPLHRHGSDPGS
Sequence of Smoothened (Q99835 28-787): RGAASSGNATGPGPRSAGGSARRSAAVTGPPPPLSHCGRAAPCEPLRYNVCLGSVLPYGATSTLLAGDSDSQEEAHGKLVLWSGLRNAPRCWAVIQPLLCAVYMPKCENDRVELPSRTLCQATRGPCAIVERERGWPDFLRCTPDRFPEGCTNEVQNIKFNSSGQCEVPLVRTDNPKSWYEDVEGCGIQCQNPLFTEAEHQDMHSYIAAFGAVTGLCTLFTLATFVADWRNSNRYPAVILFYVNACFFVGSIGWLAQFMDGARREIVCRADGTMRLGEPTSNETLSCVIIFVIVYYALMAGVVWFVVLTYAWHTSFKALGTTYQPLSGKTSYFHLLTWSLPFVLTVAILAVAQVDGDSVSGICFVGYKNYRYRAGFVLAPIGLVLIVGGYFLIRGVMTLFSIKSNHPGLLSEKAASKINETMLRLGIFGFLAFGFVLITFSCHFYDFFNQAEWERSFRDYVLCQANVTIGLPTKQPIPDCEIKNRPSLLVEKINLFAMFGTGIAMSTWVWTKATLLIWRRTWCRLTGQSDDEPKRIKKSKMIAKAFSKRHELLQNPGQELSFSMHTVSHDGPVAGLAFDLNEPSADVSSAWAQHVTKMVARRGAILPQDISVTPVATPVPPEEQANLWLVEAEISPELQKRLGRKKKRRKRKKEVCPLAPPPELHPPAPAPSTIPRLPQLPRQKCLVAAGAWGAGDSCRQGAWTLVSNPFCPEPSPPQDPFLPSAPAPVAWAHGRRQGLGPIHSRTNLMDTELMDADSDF
Sequence of Sigma1 (Q99720 whole entry): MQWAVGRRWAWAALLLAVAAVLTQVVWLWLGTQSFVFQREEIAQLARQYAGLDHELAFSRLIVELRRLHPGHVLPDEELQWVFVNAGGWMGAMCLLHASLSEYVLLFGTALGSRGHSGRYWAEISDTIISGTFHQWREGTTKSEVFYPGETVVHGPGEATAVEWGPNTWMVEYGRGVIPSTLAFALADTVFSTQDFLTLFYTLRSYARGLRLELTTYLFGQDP

Compound: Cc1nc(N(C)c2ccc(OCCF)cc2)c2ccccc2n1 [FEMPC-6827]
- Ki (Adenosine): > 10 µM
- Ki (α1A-1C): > 10 µM
- Ki (BZP): > 10 µM
- Ki (Ca++ channel): > 10 µM
- Ki (AMPA): > 10 µM
- Ki (NET): > 10 µM
- Ki (NK): > 10 µM
- Ki (Sigma1): 0.051 µM
- Ki (Na+ Channel): > 10 µM
- Ki (mGluR): > 10 µM
- Ki (NOP): > 10 µM
- Ki (PBR): 1.59 µM
- Ki (Oxytocin): > 10 µM
- Ki (Smoothened): > 10 µM
- Ki (KA): > 10 µM
- Ki (DAT): > 10 µM
- Ki (DOR): > 10 µM
- Ki (EP): > 10 µM
- Ki (GABA): > 10 µM
- Ki (HERG): > 10 µM
- Ki (KOR): > 10 µM
- Ki (M): > 10 µM
- Ki (H3, H4): > 10 µM
- Ki (MDR1): > 10 µM
- Ki (H1): 0.305 µM
- Ki (H2): 2.31 µM
- Ki (MOR): > 10 µM
- Ki (NMDA): > 10 µM
- Ki (SERT): > 10 µM
- Ki (Sigma2): 2.46 µM
- Ki (I): > 10 µM
- Ki (VMAT): > 10 µM
- Ki (NT): > 10 µM
- Ki (PKC): > 10 µM
- Ki (5-HT1A-1E): > 10 µM
- Ki (5-HT2A-2C): > 10 µM
- Ki (5-HT3-7): > 10 µM
- Ki (α2A-2C): > 10 µM
- Ki (β1-3): > 10 µM
- Ki (CB1, CB2): > 10 µM
- Ki (D1-D5): > 10 µM

Compound: Cc1nc(N(C)c2ccc(OCC[18F])cc2)c2ccccc2n1 [[^18F]FEMPC-6827]
- BBB penetration and brain distribution (brain MTs): blood brain barrier penetration and accumulation in the brain

- Ki (Adenosine): > 10 µM
- Ki (α1A-1C): > 10 µM
- Ki (BZP): > 10 µM
- Ki (Ca++ channel): > 10 µM
- Ki (AMPA): > 10 µM
- Ki (NET): > 10 µM
- Ki (NK): > 10 µM
- Ki (Sigma1): 0.832 µM
- Ki (Na+ Channel): > 10 µM
- Ki (mGluR): > 10 µM
- Ki (NOP): > 10 µM
- Ki (PBR): > 10 µM
- Ki (Oxytocin): > 10 µM
- Ki (Smoothened): > 10 µM
- Ki (KA): > 10 µM
- Ki (DAT): > 10 µM
- Ki (DOR): > 10 µM
- Ki (EP): > 10 µM
- Ki (GABA): > 10 µM
- Ki (KOR): > 10 µM
- Ki (M): > 10 µM
- Ki (H3, H4): > 10 µM
- Ki (MDR1): > 10 µM
- Ki (H1): 3.37 µM
- Ki (H2): > 10 µM
- Ki (MOR): > 10 µM
- Ki (NMDA): > 10 µM
- Ki (SERT): > 10 µM
- Ki (Sigma2): 2.46 µM
- Ki (I): > 10 µM
- Ki (VMAT): > 10 µM
- Ki (NT): > 10 µM
- Ki (PKC): > 10 µM
- Ki (5-HT1A-1E): > 10 µM
- Ki (5-HT2A-2C): > 10 µM
- Ki (5-HT3-7): > 10 µM
- Ki (α2A-2C): > 10 µM
- Ki (β1-3): > 10 µM
- Ki (CB1, CB2): > 10 µM
- Ki (D1-D5): > 10 µM
Compound: Cc1nc(N(C)c2ccc(OCCF)cc2)c2c(C)coc2n1 [FE-HD-800]
- Ki (HERG): > 10 µM

Compound: Cc1coc2ncnc(N(C)c3ccc(O[11CH3])cc3)c12 [[^11C]HD-800]
- BBB penetration and brain distribution (brain MTs): penetrated the BBB followed by a homogeneous distribution in the mouse brain
- blocking of brain activity (brain MTs; unlabeled MPC-6827 and HD-800 (5 mg/kg/i.v) 20 minute prior to radioligand): significant decreasing activity

Compound: COc1ccc2c(c1)NC(=O)CN2c1nc(C)nc2ccccc12 [WX-132-18B, 7-Methoxy-4-(2-methylquinazolin-4-yl)-3,4-dihydroquinoxalin-2(1H)-one]
- binding to a panel / variety of kinases (panel of kinases): selective
- BBB penetration [1]: BBB penetrant
- tumor growth inhibition (TGI) compared with paclitaxel (tumor xenografts): higher tumor growth inhibition (TGI) than paclitaxel
